# pIC50: −log10 of the molar value.
# Target: human DGKζ (Homo sapiens (Human), UniProt Q13574)
# Assay: Human DGKζ kinase activity inhibition assay (ADP-Glo)
# Type: biochemical
# Details: in vitro human DGKζ kinase activity inhibition assay; read-out: IC50
# In short: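 ADP-Glo luminescence, reflecting ADP produced, served as the readout of activity. Full-length human DGKζ, FLAG-tagged at the C-terminus and insect-cell expressed, was used; lipid substrate mix was sonicated with octyl-β-D-glucopyranoside in 50 mM MOPS pH 7.4.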
# Sequence of human DGKζ (Q13574 other isoform, or with tags, fused parts or gaps): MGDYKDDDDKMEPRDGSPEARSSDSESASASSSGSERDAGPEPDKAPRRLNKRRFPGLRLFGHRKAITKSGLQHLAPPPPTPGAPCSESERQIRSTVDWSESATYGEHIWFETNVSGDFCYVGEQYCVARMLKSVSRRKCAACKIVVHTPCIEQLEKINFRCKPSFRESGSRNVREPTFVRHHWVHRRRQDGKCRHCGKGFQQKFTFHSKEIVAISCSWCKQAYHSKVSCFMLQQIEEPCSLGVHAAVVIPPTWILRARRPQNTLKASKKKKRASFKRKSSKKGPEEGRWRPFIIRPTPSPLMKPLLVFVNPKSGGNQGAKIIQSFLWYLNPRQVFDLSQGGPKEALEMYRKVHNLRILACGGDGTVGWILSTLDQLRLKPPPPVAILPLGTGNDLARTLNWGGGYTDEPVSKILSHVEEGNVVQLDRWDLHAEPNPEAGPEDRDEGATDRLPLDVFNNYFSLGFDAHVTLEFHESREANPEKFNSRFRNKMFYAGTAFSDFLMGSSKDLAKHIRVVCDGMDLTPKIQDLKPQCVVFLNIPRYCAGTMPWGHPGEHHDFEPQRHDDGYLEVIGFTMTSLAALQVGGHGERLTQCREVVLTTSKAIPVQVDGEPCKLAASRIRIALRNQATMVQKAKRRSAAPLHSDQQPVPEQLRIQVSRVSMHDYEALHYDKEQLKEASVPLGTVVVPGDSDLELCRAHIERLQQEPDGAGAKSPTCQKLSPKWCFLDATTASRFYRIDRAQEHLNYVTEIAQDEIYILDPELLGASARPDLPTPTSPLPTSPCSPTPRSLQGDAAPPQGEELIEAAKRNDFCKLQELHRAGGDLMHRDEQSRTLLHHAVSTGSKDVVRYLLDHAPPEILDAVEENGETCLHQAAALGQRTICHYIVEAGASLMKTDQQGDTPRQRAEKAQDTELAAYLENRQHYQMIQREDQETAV
row,pIC50,Compound
1,6.42,"COCCNC(=O)c1ccc(C(=O)c2sc(N(c3ccc(F)cc3)C(C)C(N)=O)nc2N)cc1 (racemic) [Example 264, rac-4-[4-amino-2-(N-(2-amino-1-methyl-2-oxo-ethyl)-4-fluoro-anilino)thiazole-5-carbonyl]-N-(2-methoxyethyl)benzamide]"
2,6.54,"CC(C(N)=O)N(c1ccc(F)cc1)c1nc(N)c(C(=O)c2ccc(C(=O)NC3CC3)cc2)s1 (racemic) [Example 266, rac-4-[4-amino-2-(N-(2-amino-1-methyl-2-oxo-ethyl)-4-fluoro-anilino)thiazole-5-carbonyl]-N-cyclopropyl-benzamide]"
3,7.20,"CC(C(N)=O)N(c1ccc(F)cc1)c1nc(N)c(C(=O)c2ccc(C(=O)NC3CCCC3)cc2)s1 (racemic) [Example 267, rac-4-[4-amino-2-(N-(2-amino-1-methyl-2-oxo-ethyl)-4-fluoro-anilino)thiazole-5-carbonyl]-N-cyclopentyi-benzamide]"
4,8.52,"CC(C(N)=O)N(c1ccc(Cl)c(F)c1)c1nc(N)c(C(=O)c2ccc(C(=O)NCCOc3ccccc3)cc2)s1 (racemic) [Example 268, rac-4-[4-amino-2-(N-(2-amino-1-methyl-2-oxo-ethyl)-4-chloro-3-fluoro-anilino)thiazole-5-carbonyl]-N-(2-phenoxyethyl)benzamide]"
5,7.92,"CC(C(N)=O)N(c1ccc(Cl)c(F)c1)c1nc(N)c(C(=O)c2ccc(C(=O)NCCOC(F)(F)F)cc2)s1 (racemic) [Example 269, rac-4-[4-amino-2-(N-(2-amino-1-methyl-2-oxo-ethyl)-4-chloro-3-fluoro-anilino)thiazole-5-carbonyl]-N-[2-(trifluoromethoxy)ethyl]benzamide]"
6,7.89,"CC(C(N)=O)N(c1ccc(Cl)c(F)c1)c1nc(N)c(C(=O)c2ccc(C(=O)NCCOC(F)F)cc2)s1 (racemic) [Example 270, rac-4-[4-amino-2-(N-(2-amino-1-methyl-2-oxo-ethyl)-4-chloro-3-fluoro-anilino)thiazole-5-carbonyl]-N-2-(difluoromethoxy)ethyl]benzamide]"
7,7.41,"COCCNC(=O)c1ccc(C(=O)c2sc(N(c3ccc(Cl)c(F)c3)C(C)C(N)=O)nc2N)cc1 (racemic) [Example 272, rac-4-[4-amino-2-(N-(2-amino-1-methyl-2-oxo-ethyl)-4-chloro-3-fluoro-anilino)thiazole-5-carbonyl]-N-(2-methoxyethyl)benzamide]"
8,7.70,"CC(C(N)=O)N(c1ccc(F)cc1)c1nc(N)c(C(=O)c2ccc(OC(C)(C)C(=O)NCc3ccc(Cl)cc3)cc2)s1 (racemic) [Example 273, rac-2-[4-[4-amino-2-(N-(2-amino-1-methyl-2-oxo-ethyl)-4-fluoro-anilino)thiazole-5-carbonyl]phenoxy]-N-[(4-chlorophenyl)methyl]-2-methyl-propanamide]"
9,6.97,"CC(C(N)=O)N(c1ccc(F)cc1)c1nc(N)c(C(=O)c2ccc(Br)nc2)s1 (racemic) [Example 274, rac-2-(N-[4-amino-5-(6-bromopyridine-3-carbonyl)thiazol-2-yl]-4-fluoro-anilino)propanamide]"
10,7.54,"CC(C(N)=O)N(c1ccc(F)cc1)c1nc(N)c(C(=O)c2ccc(N3CCC(C(F)(F)F)CC3)nc2)s1 (racemic) [Example 275, rac-2-(N-[4-amino-5-[6-[4-(trifluoromethyl)-1-piperidyl]pyridine-3-carbonyl]thiazol-2-yl]-4-fluoro-anilino)propanamide]"
11,7.54,"CC1CCN(c2ccc(C(=O)c3sc(N(c4ccc(F)cc4)C(C)C(N)=O)nc3N)cn2)CC1 (racemic) [Example 276, rac-2-(N-[4-amino-5-[6-(4-methyl-1-piperidyl)pyridine-3-carbonyl]thiazol-2-yl]-4-fluoro-anilino)propanamide]"
12,6.31,"CC(C(N)=O)N(c1ccc(F)cc1)c1nc(N)c(C(=O)c2ccc(N3CCC(C4COC4)CC3)nc2)s1 (racemic) [Example 277, rac-2-(N-[4-amino-5-[6-[4-(oxetan-3-yl)-1-piperidyl]pyridine-3-carbonyl]thiazol-2-yl]-4-fluoro-anilino)propanamide]"
13,6.64,"CC(C(N)=O)N(c1ccc(F)cc1)c1nc(N)c(C(=O)c2ccc(N(C)C)nc2)s1 (racemic) [Example 278, rac-2-(N-[4-amino-5-[6-(dimethylamino)pyridine-3-carbonyl]thiazol-2-yl]-4-fluoro-anilino)propanamide]"
14,7.32,"CC(C(N)=O)N(c1ccc(F)cc1)c1nc(N)c(C(=O)c2ccc(N3CCC(C)(C)CC3)nc2)s1 (racemic) [Example 279, rac-2-(N-[4-amino-5-[6-(4,4-dimethyl-1-piperidyl)pyridine-3-carbonyl]thiazol-2-yl]-4-fluoro-anilino)propanamide]"
15,7.37,"CC(C(N)=O)N(c1ccc(F)cc1)c1nc(N)c(C(=O)c2ccc(N3CC4CCC(C4)C3)nc2)s1 (racemic) [Example 280, rac-2-(N-[4-amino-5-[6-(3-azabicyclo[3.2.1]octan-3-yl)pyridine-3-carbonyl]thiazol-2-yl]-4-fluoro-anilino)propanamide]"
16,7.01,"CC1CC(C)CN(c2ccc(C(=O)c3sc(N(c4ccc(F)cc4)C(C)C(N)=O)nc3N)cn2)C1 (racemic) [Example 281, rac-2-(N-[4-amino-5-[6-(3,5-dimethyl-1-piperidyl)pyridine-3-carbonyl]thiazol-2-yl]-4-fluoro-anilino)propanamide]"
17,7.28,"CC(C(N)=O)N(c1ccc(F)cc1)c1nc(N)c(C(=O)c2ccc(N3CC4CC4C3)nc2)s1 (racemic) [Example 282, rac-2-(N-[4-amino-5-[6-(3-azabicyclo[3.1.0]hexan-3-yl)pyridine-3-carbonyl]thiazol-2-yl]-4-fluoro-anilino)propanamide]"
18,7.44,"CC(C(N)=O)N(c1ccc(F)cc1)c1nc(N)c(C(=O)c2ccc(N3CCCCC3)nc2)s1 (racemic) [Example 283, rac-2-(N-[4-amino-5-[6-(1-piperidyl)pyridine-3-carbonyl]thiazol-2-yl]-4-fluoro-anilino)propanamide]"
19,7.48,"CC(C(N)=O)N(c1ccc(F)cc1)c1nc(N)c(C(=O)c2ccc(N3CCC(F)(F)CC3)nc2)s1 (racemic) [Example 284, rac-2-(N-[4-amino-5-[6-(4,4-difluoro-1-piperidyl)pyridine-3-carbonyl]thiazol-2-yl]-4-fluoro-anilino)propanamide]"
20,6.55,"CC(C(N)=O)N(c1ccc(F)cc1)c1nc(N)c(C(=O)c2ccc(OCCO)cc2)s1 (racemic) [Example 292, rac-2-(N-[4-amino-5-[4-(2-hydroxyethoxy)benzoyl]thiazol-2-yl]-4-fluoro-anilino)propanamide]"

row,Compound,pIC50
1,"CC(C(N)=O)N(c1ccc(Cl)c(F)c1)c1nc(N)c(C(=O)c2ccc(C(=O)NCCOC(C)(C)C)cc2)s1 (racemic) [Example 271, rac-4-[4-amino-2-(N-(2-amino-1-methyl-2-oxo-ethyl)-4-chloro-3-fluoro-anilino)thiazole-5-carbonyl]-N-(2-tert-butoxyethyl)benzamide]",7.74
2,"CC(C(N)=O)N(c1ccc(F)cc1)c1nc(N)c(C(=O)c2ccc(N3CCC(C)(C#N)CC3)nc2)s1 (racemic) [Example 285, rac-2-(N-[4-amino-5-[6-(4-cyano-4-methyl-1-piperidy!)pyridine-3-carbonyl]thiazol-2-yl]-4-fluoro-anilino)propanamide]",7.17

# Reference: patent US11964953B2, “Substituted aminothiazoles as DGKzeta inhibitors for immune activation” (Bayer Aktiengesellschaft, priority 2020, dated 2024)
